Where two headings read alike, the source gives them in different places.
Tests used:
[1] = tested on: granuloma; experiment: Inhibitory Effects on Granuloma Growth (Paper Disk Method); assay type: in vivo, male Sprague-Dawley rats; conditions: Rattus norvegicus, topical, 168 h, rat, paper disk; ointment 0.1%, 50 mg once a day, 7 days; read-out: Weight of granuloma, per cent of change of the controls
Method: Ointment to be tested was prepared usign white soft paraffin as the base and containing dexamethasone at 0.1% concentration.
Groups of 5 male Sprague-Dawley rats each weighing 150-170 g were used. Under ether anesthesia, the dorsum of animals was closely clipped, and medianly incised. After each one pre-weighed paper disk (8-mm diameter, 1-mm thick, weighing about 30 mg; Toyo-Roshi filter paper) was inserted subcutaneously into both sides of the dorsal incision, the incision was sutured. In order to prevent bacterial infection, penicillin G potassium salt (2,000 units) per rat was intramascularly injected after the surgery. Base or ointment to be tested (50 mg each) was rubbed carefully into the skin over the paper disk inserted site, for 30 seconds once a day for the duration of 7 days. Rats were slipped plastic cangs on to prevent them from licking the drug applied sites. On the 8th day of the test, rats were sacrificed under ether anesthesia, and granulomas were carefully excised. Granulomas were dried at 40° C. for 24 h, and their dry weights were recorded.
Inhibitory effects of dexamethasone derivatives on the weight increase of granuloma of experimental animals as compared with those of control animals are shown as per cent of inhibition ov er the control in Table 1. Figures wihth asterisks in the table indicate signfiicant difference. The same will be applied to the following other tables.

[2] = tested on: croton oil-induced granuloma; experiment: Croton Oil-induced Granuloma (granuloma pouch); assay type: in vivo, male Sprague-Dawley rats; conditions: 7 days; for inhibition in vivo at 0.01 mg / inhibition in vivo at 0.1 mg / inhibition in vivo at 1 mg: Rattus norvegicus, 168 h
Method: Groups of 5 male Sprague-Dawley rats each weighing 160-180 g were used. Under ether anesthesia, the dorsum of animals was closely clipped, and air sac was formed by injecting air (20 ml) subcutaneously. Next day cotton seed oil containing 1% croton oil was injected into the air sac. Drugs to be tested were suspended in the cotton seed oil containing 1% croton oil, and administered. After 7 days, the blood was taken from the animal under ether anesthesia. Then, the granuloma pouch fluid (exudate) was collected, and the fluid volume was measured. The pouch wall formed around granuloma and thymus were also excised and weighed.

[3] = 0.01 mg/rat, read-out: Effects on granuloma weight, per cent of inhibition over the control
[4] = 0.01 mg/rat, read-out: Effects on pouch fluid (exudate) volume, per cent of inhibition over the control
[5] = 0.1 mg/rat, read-out: Effects on granuloma weight, per cent of inhibition over the control
[6] = 0.1 mg/rat, read-out: Effects on pouch fluid (exudate) volume, per cent of inhibition over the control
[7] = 1.0 mg/rat, read-out: Effects on granuloma weight, per cent of inhibition over the control
[8] = 1.0 mg/rat, read-out: Effects on pouch fluid (exudate) volume, per cent of inhibition over the control

## Cc1ccc(C(=O)OC[C@H]2O[C@H](OCC(=O)[C@@]3(O)[C@H](C)C[C@H]4[C@@H]5CCC6=CC(=O)C=C[C@]6(C)[C@@]5(F)[C@@H](O)C[C@@]43C)[C@H](OC(=O)c3ccc(C)cc3)[C@@H](OC(=O)c3ccc(C)cc3)[C@@H]2OC(=O)c2ccc(C)cc2)cc1 [Compound 4α]
[1]
  change in vivo at 0.1 %, 50 mg: -0.6 ± 5.1%

## Cc1ccc(C(=O)OC[C@H]2O[C@@H](OCC(=O)[C@@]3(O)[C@H](C)C[C@H]4[C@@H]5CCC6=CC(=O)C=C[C@]6(C)[C@@]5(F)[C@@H](O)C[C@@]43C)[C@H](OC(=O)c3ccc(C)cc3)[C@@H](OC(=O)c3ccc(C)cc3)[C@@H]2OC(=O)c2ccc(C)cc2)cc1 [Compound 4β]
[1]
  change in vivo at 0.1 %, 50 mg: -7.9 ± 5%

## Cc1ccc(C(=O)OC[C@H]2O[C@H](OCC(=O)[C@@]3(O)[C@H](C)C[C@H]4[C@@H]5CCC6=CC(=O)C=C[C@]6(C)[C@@]5(F)[C@@H](O)C[C@@]43C)[C@H](OC(=O)c3ccc(C)cc3)[C@@H](OC(=O)c3ccc(C)cc3)[C@H]2OC(=O)c2ccc(C)cc2)cc1 [Compound 14α]
[1]
  change in vivo at 0.1 %, 50 mg: 5.7 ± 1.9%

## Cc1ccc(C(=O)OC[C@H]2O[C@@H](OCC(=O)[C@@]3(O)[C@H](C)C[C@H]4[C@@H]5CCC6=CC(=O)C=C[C@]6(C)[C@@]5(F)[C@@H](O)C[C@@]43C)[C@H](OC(=O)c3ccc(C)cc3)[C@@H](OC(=O)c3ccc(C)cc3)[C@H]2OC(=O)c2ccc(C)cc2)cc1 [Compound 14β]
[1]
  change in vivo at 0.1 %, 50 mg: -8.7 ± 7.2%

## Cc1ccc(C(=O)OC[C@H]2O[C@H](OCC(=O)[C@@]3(O)[C@H](C)C[C@H]4[C@@H]5CCC6=CC(=O)C=C[C@]6(C)[C@@]5(F)[C@@H](O)C[C@@]43C)[C@@H](OC(=O)c3ccc(C)cc3)[C@@H](OC(=O)c3ccc(C)cc3)[C@@H]2OC(=O)c2ccc(C)cc2)cc1 [Compound 24α, mannosyldexamethasone]
[1]
  change in vivo at 0.1 %, 50 mg: -3.7 ± 4.5%

## CC(=O)N[C@H]1[C@H](OCC(=O)[C@@]2(O)[C@H](C)C[C@H]3[C@@H]4CCC5=CC(=O)C=C[C@]5(C)[C@@]4(F)[C@@H](O)C[C@@]32C)O[C@H](COC(C)=O)[C@@H](OC(C)=O)[C@@H]1OC(C)=O [Compound 34β, N-acetylglucosaminyldexamethasone]
[1]
  change in vivo at 0.1 %, 50 mg: -21.3 ± 3.9%

## CC(=O)N[C@H]1[C@H](OCC(=O)[C@@]2(O)[C@H](C)C[C@H]3[C@@H]4CCC5=CC(=O)C=C[C@]5(C)[C@@]4(F)[C@@H](O)C[C@@]32C)O[C@H](CO)[C@@H](O)[C@@H]1O [Compound 35β, β-N-acetylglucosaminyldexamethasone]
[1]
  change in vivo at 0.1 %, 50 mg: -21.9 ± 4.2%

## CC(=O)N[C@H]1[C@H](OCC(=O)[C@@]2(O)[C@H](C)C[C@H]3[C@@H]4CCC5=CC(=O)C=C[C@]5(C)[C@@]4(F)[C@@H](O)C[C@@]32C)O[C@H](COC(C)=O)[C@H](OC(C)=O)[C@@H]1OC(C)=O [Compound 44β]
[1]
  change in vivo at 0.1 %, 50 mg: -16.5 ± 3%

## CC(=O)N[C@H]1[C@H](OCC(=O)[C@@]2(O)[C@H](C)C[C@H]3[C@@H]4CCC5=CC(=O)C=C[C@]5(C)[C@@]4(F)[C@@H](O)C[C@@]32C)O[C@H](CO)[C@H](O)[C@@H]1O [Compound 45β, N-acetylgalactosaminyldexamethasone]
[1]
  change in vivo at 0.1 %, 50 mg: -28.1 ± 3.5%

## COC(=O)[C@H]1O[C@@H]2OC(C)(OCC(=O)[C@@]3(O)[C@H](C)C[C@H]4[C@@H]5CCC6=CC(=O)C=C[C@]6(C)[C@@]5(F)[C@@H](O)C[C@@]43C)O[C@@H]2[C@@H](OC(C)=O)[C@@H]1OC(C)=O (stereo partly shown) [Compound 54']
[1]
  change in vivo at 0.1 %, 50 mg: -44.8 ± 2.4%

## COC(=O)[C@H]1O[C@@H](OCC(=O)[C@@]2(O)[C@H](C)C[C@H]3[C@@H]4CCC5=CC(=O)C=C[C@]5(C)[C@@]4(F)[C@@H](O)C[C@@]32C)[C@H](OC(C)=O)[C@@H](OC(C)=O)[C@@H]1OC(C)=O [Compound 54β]
[1]
  change in vivo at 0.1 %, 50 mg: -35.1 ± 2.8%

## C[C@@H]1C[C@H]2[C@@H]3CCC4=CC(=O)C=C[C@]4(C)[C@@]3(F)[C@@H](O)C[C@]2(C)[C@@]1(O)C(=O)CO[C@@H]1O[C@H](C(=O)O)[C@@H](O)[C@H](O)[C@H]1O [Compound 55β, β-glucuronyldexamethasone]
[1]
  change in vivo at 0.1 %, 50 mg: -37.4 ± 7.1%

## COC(=O)[C@H]1O[C@@H](OCC(=O)[C@@]2(O)[C@H](C)C[C@H]3[C@@H]4CCC5=CC(=O)C=C[C@]5(C)[C@@]4(F)[C@@H](O)C[C@@]32C)[C@H](OC(=O)c2ccc(C)cc2)[C@@H](OC(=O)c2ccc(C)cc2)[C@@H]1OC(=O)c1ccc(C)cc1 [Compound 59β]
[1]
  change in vivo at 0.1 %, 50 mg: -7.7 ± 6.8%

## COC(=O)[C@H]1O[C@@H]2OC(C)(OCC(=O)[C@@]3(O)[C@H](C)C[C@H]4[C@@H]5CCC6=CC(=O)C=C[C@]6(C)[C@@]5(F)[C@@H](O)C[C@@]43C)O[C@@H]2[C@@H](OC(C)=O)[C@H]1OC(C)=O (stereo partly shown) [Compound 64']
[1]
  change in vivo at 0.1 %, 50 mg: -41.3 ± 2.3%

## COC(=O)[C@H]1O[C@@H](OCC(=O)[C@@]2(O)[C@H](C)C[C@H]3[C@@H]4CCC5=CC(=O)C=C[C@]5(C)[C@@]4(F)[C@@H](O)C[C@@]32C)[C@H](OC(C)=O)[C@@H](OC(C)=O)[C@H]1OC(C)=O [Compound 64β]
[1]
  change in vivo at 0.1 %, 50 mg: -32.5 ± 0.5%

## C[C@@H]1C[C@H]2[C@@H]3CCC4=CC(=O)C=C[C@]4(C)[C@@]3(F)[C@@H](O)C[C@]2(C)[C@@]1(O)C(=O)CO[C@@H]1O[C@H](C(=O)O)[C@H](O)[C@H](O)[C@H]1O [Compound 65β, β-galacturonyldexamethasone]
[1]
  change in vivo at 0.1 %, 50 mg: -33 ± 3.3%

## COC(=O)[C@H]1O[C@@H](OCC(=O)[C@@]2(O)[C@H](C)C[C@H]3[C@@H]4CCC5=CC(=O)C=C[C@]5(C)[C@@]4(F)[C@@H](O)C[C@@]32C)[C@H](OC(=O)c2ccc(C)cc2)[C@@H](OC(=O)c2ccc(C)cc2)[C@H]1OC(=O)c1ccc(C)cc1 [Compound 69β]
[1]
  change in vivo at 0.1 %, 50 mg: 0.7 ± 2.4%

## Cc1ccc(C(=O)OC[C@H]2O[C@@H](OCC(=O)[C@@]3(O)CC[C@H]4[C@@H]5C[C@H](F)C6=CC(=O)C=C[C@]6(C)[C@@]5(F)[C@@H](O)C[C@@]43C)[C@H](OC(=O)c3ccc(C)cc3)[C@@H](OC(=O)c3ccc(C)cc3)[C@@H]2OC(=O)c2ccc(C)cc2)cc1 [Compound 105β, glucosyldiflupredonate (p-toluoyl derivative)]
[2]; [3]
  inhibition in vivo at 0.01 mg: -5.9 ± 10.9%
[2]; [4]
  inhibition in vivo at 0.01 mg: -8.1 ± 9.4%
[2]; [5]
  inhibition in vivo at 0.1 mg: 22.1 ± 3.7%
[2]; [6]
  inhibition in vivo at 0.1 mg: 24.8 ± 8.8%
[2]; [7]
  inhibition in vivo at 1 mg: 53 ± 6.2%
[2]; [8]
  inhibition in vivo at 1 mg: 76.4 ± 4.3%
[1]
  change in vivo at 0.1 %, 50 mg: -1.2 ± 5.7%

## Cc1ccc(C(=O)OC[C@H]2O[C@@H](OCC(=O)[C@H]3[C@H](C)C[C@H]4[C@@H]5C[C@H](F)C6=CC(=O)C=C[C@]6(C)[C@@]5(F)[C@@H](O)C[C@@]43C)[C@H](OC(=O)c3ccc(C)cc3)[C@@H](OC(=O)c3ccc(C)cc3)[C@@H]2OC(=O)c2ccc(C)cc2)cc1 [Compound 109β, Glucosyldiflucortolone (p-toluoyl derivative)]
[1]
  change in vivo at 0.1 %, 50 mg: -0.2 ± 3.7%

## CCCC(=O)O[C@]1(C(=O)COC(C)=O)CC[C@H]2[C@@H]3C[C@H](F)C4=CC(=O)C=C[C@]4(C)[C@@]3(F)[C@@H](O)C[C@@]21C [Diflupredonate, reference compound]
[2]; 0.01 mg/rat
  Effects on thymus weight, per cent of inhibition over the control thymus weight: 14.7 ± 10.4 per cent
[2]; 0.1 mg/rat
  Effects on thymus weight, per cent of inhibition over the control thymus weight: 71.2 ± 2.9 per cent
[2]; 1.0 mg/rat
  Effects on thymus weight, per cent of inhibition over the control thymus weight: 71.8 ± 3.2 per cent
[2]; [3]
  inhibition in vivo at 0.01 mg: -11 ± 23.1%
[2]; [4]
  inhibition in vivo at 0.01 mg: 17.4 ± 13.5%
[2]; [5]
  inhibition in vivo at 0.1 mg: 35 ± 10.3%
[2]; [6]
  inhibition in vivo at 0.1 mg: 65.3 ± 12.1%
[2]; [7]
  inhibition in vivo at 1 mg: 78.8 ± 5%
[2]; [8]
  inhibition in vivo at 1 mg: 96.2 ± 1.2%

## Diflurasone acetate [reference compound]
[2]; 0.01 mg/rat
  Effects on granuloma weight, per cent of inhibition over the control: -13.1 ± 13.3 per cent
[2]; 0.1 mg/rat
  Effects on granuloma weight, per cent of inhibition over the control: 4.0 ± 10.5 per cent
[2]; 1.0 mg/rat
  Effects on granuloma weight, per cent of inhibition over the control: 11.7 ± 12.4 per cent

Source: US5945404A, “21-Substituted steroid compound” (priority 1993, dated 1999)
